The values that follow are results of earlier work, collected in article PMC11585628 (Nature Communications, 2024).

pEC50: −log10 of the molar value.

Usually pEC50 stands for the negative decadic logarithm of the EC50, by convention in mol/L.

The series has as its system SARS-CoV-2. The conditions noted are these: read-out: EC50 for antiviral effects.

XR8-24: the pEC50 was 5.92.
